{
  "source": "patent US20250025439A1",
  "about": "“DERIVATIVES OF NIFUROXAZIDE FOR USE IN THE TREATMENT OF MITOCHONDRIAL DISORDERS AND NEURODEGENERATIVE DISEASES” (priority 2021, published 2025)",
  "assay_type_in_all_cases": "cell-based, human",
  "key": {"[1]": {"system": "control and patient fibroblasts", "experiment": "Toxicity assay (Trypan blue cell counting after 72 h)", "settings": "Homo sapiens, Fibroblast, control and patient fibroblasts, living cells vs DMSO, read-out: calculated IC50 (toxicity)", "experimental": "Skin punches were obtained from patients after informed consent. Primary fibroblast cultures were established using standard procedures in RPMI supplemented with 10% Fetal Bovine Serum (FBS), 45 μg/mL uridine and 275 μg/mL sodium pyruvate (Bannwarth et al., 2014). Primary fibroblast cultures were maintained in Dulbecco's Modified Eagle Medium supplemented with 10% FBS, penicillin (100 U/mL) and streptomycin (0.1 mg/mL) at 37° C. in a humidified incubator with 5% CO2. Cells were plated in six well plates in glucose medium (DMEM, 10% FBS, penicillin (100 U/mL) and streptomycin (0.1 mg/mL)) and incubated at 37° C. in a humidified incubator with 5% CO2. After 24h, one well was treated with DMSO, the other wells were treated with rising concentrations of […] or NFO. 72 h after the treatment, the cells were trypsinized, stained with Trypan blue and counted with a Malassez cell. The ratio of each concentration compared to the DMSO control has been plotted and the IC50 has been calculated using the nonlinear regression on the software GraphpadPrism 8."}, "[2]": {"system": "fibroblasts of patients carrying loss of function mutations in MIC13/QIL1", "experiment": "Mitochondrial network analysis in fibroblasts with primary MICOS disassembly", "settings": "P3 and P4 fibroblasts, NFX 5 μM, 72 h", "experimental": "Cells were incubated with MitoTracker red (Invitrogen) as previously described (Genin et al., EMBO Mol. Med., 2016, 8, 58-72). Fibroblasts were plated on a glass slide in a 60 mm dish. For the mitochondrial staining, the fibroblasts were incubated with MitoTracker Red (Invitrogen) (100 nM) during 15 minutes at 37° C. Then the medium was replaced by fresh medium for two hours at 37° C. The cells were fixed using Paraformaldehyde (Electron Microscopy Science) (4%) diluted in medium, 20 minutes at 37° C. The cells were then washed with PBS and mounted with Prolong Gold Antifade Reagent (Molecular Probes). The slides were analysed using a confocal microscope (Zeiss LSM 880). […] The images were deconvoluted with Huygens Essential Software™ (Scientific Volume Imaging) using a theoretically calculated point spread function (PSF) for each of the dyes. All selected images were iteratively deconvolved with maximum iterations scored 40 and a quality threshold at 0.05. The deconvolved images were used for quantitative mitochondrial network analysis with Huygens Essentiel Software™ with the following standardised set of parameters: threshold=15% and seed=10% for each cell types and garbage=10. The quantitative data were further analysed in Microsoft Excel and GraphPad Prism 8 (GraphPad Software). Mitochondrial network length was quantified for 30 randomly-selected individual cells. […]"}, "patient motor neurons": {"system": "patient motor neurons", "experiment": "Electron microscopy of mitochondrial morphology in iPSC-derived motor neurons", "settings": "NFX 0.5 μM, 72 h", "experimental": "Cells were seeded on 24 wells/plate, fixed with 1.6% glutaraldehyde in 0.1 M cacodylate buffer (pH 7.4) for 2 hours, rinsed and postfixed in 1% osmium tetroxide and 1% potassium ferrocyanide in 0.1 M cacodylate buffer before to processed for ultrastructure as previously described (Bannwarth et al., Brain, 2014, 137, 2329-2345). The protocol for contrasting sections was slightly modified, using a 5% Lanthanide salt solution (a mixture of Gadolinium acetate and Samarium acetate) for 7 minutes instead of uranium acetate. The cells were examined under a JEOL 1400 transmission electron microscope. The ultrastructure of mitochondria was classified in three categories. Normal: the mitochondria have numerous, parallel and well organized cristae. Intermediary: the mitochondria have less cristae, they show few round or swollen cristae or have a mild disorganisation. Abnormal: the mitochondria have swollen, disorganized or no cristae. More than 100 mitochondria were classified per condition. iPSC clones were generated from human fibroblasts as previously described (Genin et al., Acta Neuropathol., 2019, 138, 123-145). Motor neurons were differentiated from iPSC using previously described and validated protocols with some modifications. Briefly, iPSC clones were detached by Accutase treatment to form small clusters. […]"}},
  "data": [
    {"compound": "O=C(N/N=C/c1ccc([N+](=O)[O-])o1)c1ccc(O)cc1", "note": "[NFX, (E)-4-hydroxy-N′-((5-nitrofuran-2-yl)methylene)benzohydrazide]", "values": [
      {"measurement": "IC50", "setting": "[1]", "result": "~10", "unit": "µM"},
      {"measurement": "length of the mitochondrial network", "setting": "[2]", "result": "significant increase"},
      {"measurement": "mitochondrial morphology and cristae shape (EM)", "setting": "patient motor neurons", "result": "improved"}
    ]}
  ]
}
